According to patent US6828450B2, “Triptycene analogs” (Kansas State University Research Foundation, priority 2000, dated 2004):
pIC50: −log10 of the molar value. “And” between values parts separate entries of the source, which are not always exact repeats. Equal entries are not always repeated. Where two headings read alike, the source gives them in different places.

Columns and labels:
[1] = tested on: Plasmodium falciparum 3D7; assay: Antimalarial activity, inhibition of Plasmodium falciparum 3D7; type: cell-based; details: malaria strain 3D7
[2] = tested on: L1210 cells; assay: DNA cleavage (intact chromatin precipitation) in L1210 cells; type: cell-based, murine
Description: FIG. 19. Comparison of the concentration-dependent effects of novel TT analogs and known DNA-damaging anticancer drugs on DNA cleavage in L1210 cells in vitro. […] After lysing the cells in HLB containing 0.2% Triton X-100, the detergent-soluble DNA fragments present in the supernatants and the intact chromatin DNA remaining in the pellets were separated by centrifugation and their radioactivity estimated by LSC. Results are expressed as [cpm in supernatant/cpm in supernatant+pellet]×100 at 24 h. For untreated controls (5.3±0.6% DNA fragmentation; striped area), the supernatant is 741±79 cpm and the pellet is 13,293±1,446 cpm.
FIG. 20. Comparison of the abilities of novel TT analogs to induce DNA cleavage in L1210 cells in vitro. Cells containing prelabeled DNA were incubated at 37° C. for 24 h in the presence or absence (control) of 7 μM concentrations of the indicated compounds. The protocol of the experiment and the determination of the results were identical to those of FIG. 12.
FIG. 22. Irreversibility of the effects of novel TT analogs and known DNA-damaging anticancer drugs on DNA cleavage in L1210 cells in vitro. Cells containing prelabeled DNA were incubated at 37° C. for various periods of time in the presence or absence (control) of 10 μM TT1 or TT2 and 1.6 μM DAU or CPT. The protocol of the experiment and the determination of the results at 24 h were identical to those of FIG. 19, except that the drugs were either maintained in the medium for the whole 24-h period of incubation (open) or removed after the first 3 (striped) and 8 h (closed). After spinning and washing the appropriate samples to remove the drugs, cells were resuspended in 0.5 ml of fresh medium to complete the 24-h period of incubation in the absence of drugs. Vehicle-treated controls were similarly spun and washed at 3 and 8 h. Bars: means±SD (n=3).
Drug-induced DNA cleavage was determined by intact chromatin precipitation, using L1210, HL-60-S, HL-60-RV and HL-60-R8 cells which were prelabeled with 1 μCi of ^3H-thymidine for 2 h at 37° C., washed with 3×1 ml of ice-cold PBS, collected by centrifugation, and resuspended in fresh FCS-containing RPMI 1640 medium at a density of about 1×10^6 cells/0.5 ml for L1210 and 0.5×10^6 cells/0.5 ml for HL cells. Except when otherwise specified, such cells containing prelabeled DNA were then exposed for 24 h to TTs and drugs known to induce DNA fragmentation. After centrifugation at 200×g for 10 min to discard the drugs and wash the cells, the intact cell pellets were lysed for 30 min in 0.5 ml of HLB, centrifuged at 12,000×g for 30 min to collect the supernatants, and resuspended in 0.5 ml of HLB. After another similar centrifugation, the radioactivities in the pooled supernatants (detergent-soluble low molecular weight DNA fragments) and the pellet (intact chromatin DNA) were determined by LSC: % DNA fragmentation=[cpm in supernatant/cpm in supernatant+pellet]×100. Before being counted in 6 ml of Bio-Safe NA, the intact pelleted chromatin was incubated for 2 h at 60° C. in the presence of 0.6 ml of NCS tissue solubilizer (Amersham).

[3] = tested on: HL-60-RV cells; assay: Nucleoside transport in HL-60-RV cells; type: cell-based, human; details: for pIC50: 15-min preincubation, 30 s
From the text: FIG. 15. Comparison of the concentration-dependent inhibitions of the cellular transport of purine (A) and pyrimidine (B) nucleosides by DAU (open symbols) and TT2 (closed symbols) in HL-60-S (circles), HL-60-RV (squares) and HL-60-R8 (triangles) cells in vitro. Results are expressed as % of ^3H-adenosine (26,032±2,239 cpm, 100±9%, striped area in A) and ^3H-thymidine (17,934±1,398 cpm, 100±8%, striped area in B) transported into vehicle-treated control cells over 30 s.
The MDR HL-60-RV and HL-60-R8 cells were developed in Melvin S. Center's laboratory (Kansas State University) and similarly maintained in RPMI 1640 medium in the absence of drugs (Marsh W, et al, Cancer Res 46: 4053-4057, 1986; McGrath T et al, and Center M S: Biochem Biophys Res Commun 145: 1171-1176, 1987; Marsh W and Center M S: Cancer Res 47: 5080-5086, 1987; McGrath T, et al, Biochem Pharmacol 38: 3611-3619, 1989; Marquardt D, et al, Cancer Res 50: 1426-1430, 1990; Marquardt D and Center M S: J Natl Cancer Inst 83: 1089-1109, 1991; Krishnamachary N and Center M S; Cancer Res 53: 3658-3661, 1993). Every 4 weeks, these HL-60-RV and HL-60-R8 sublines were exposed to 41 nM DAU for 48 h to stabilize their MDR phenotype. This concentration of DAU, which is not cytotoxic to MDR HL-60 sublines, was removed from the culture medium at least 48 h before experimentation. […] RFs were determined by dividing the IC50 of the MDR cells by that of the sensitive WT parent cell line.
L1210 cells (about 1.5×10^6 cells/0.5 ml) were preincubated for 15 min at 37° C. in the presence or absence of TTs and then exposed to 1 μCi of ^3H-thymidine for only 30 sec to assess the cellular uptake of nucleoside over such very short period of time. HL-60-S, HL-60-RV and HL-60-R8 cells (1.2×10^6 cells/0.5 ml) were preincubated for 15 min at 37° C. in the presence or absence (control) of drugs and then exposed to 1 μCi of [2,8-^3H]adenosine (30 Ci/mmol; American Radiolabeled Chemicals, St. Louis, Mo.) or [methyl-^3H]thymidine (50 Ci/mmol; Amersham, Arlington Heights, Ill.) for only 30 s to, respectively, assess the cellular uptake of purine and pyrimidine nucleosides over such very short period of time Reactions were diluted with 2 ml of ice-cold Ca^2+/Mg^2+-free Dulbecco's phosphate buffered saline (PBS) and the unincorporated radiolabel was removed by centrifugation at 200×g for 10 min. […] Cell lysates were mixed with 9 ml of Bio-Safe II (Researeh Products International) and counted to estimate the cellular uptake of ^3H-thymidine. Drug inhibition was expressed as % of ^3H-thymidine or ^3H-adenosine transported into vehicle-treated control cells over similar 30-sec period.

[4] = tested on: HL-60-S cells; assay: DNA synthesis in HL-60-S cells; type: cell-based, human; details: for pIC50: read-out: IC50, inhibition of DNA synthesis in HL-60-S cells

Row | pIC50 [1] | pIC50 ([3]; purine nucleoside, read-out: IC50, cellular transport of 3H-adenosine in HL-60-RV cells) | pIC50 ([3]; pyrimidine nucleoside, read-out: IC50, cellular transport of 3H-thymidine in HL-60-RV cells) | pIC50 [4] | SMILES | DNA fragmentation at 24 h after short exposure ([2]; 10 μM, drug removed after 3 and 8 h) | DNA cleavage (% DNA fragmentation) ([2]; 10 μM, whole 24 h) | concentration at which induction of DNA cleavage peaks ([2]; DNA cleavage at 24 h, internucleosomal fragmentation at 48-72 h) | times higher TT2 than DAU concentrations needed for the same peak of DNA cleavage ([2]; L1210, 24 h) | RFs, nucleoside transport ([3]; HL-60-RV and HL-60-R8 vs HL-60-S, adenosine and thymidine) | times TT2 inhibits DNA synthesis less effectively than DAU ([4]; HL-60-S) | DNA cleavage (% DNA fragmentation) ([2]; 1.6 μM, 24 h) | DNA fragmentation at 24 h, drug maintained or removed ([2]; 1.6 μM, maintained or removed after 3 or 8 h) | effect on nucleoside transport in the two MDR sublines ([3]; HL-60-RV and HL-60-R8) | pIC50 ([4]; Homo sapiens)
1 | 5.25 |  |  |  | COC1=C(Br)C(=O)C2=C(C1=O)C1C3=C(C(=O)C=C(N(C)C)C3=O)C2c2ccccc21 (stereo not drawn) [TT16, 2-Bromo-3-methoxy-6-(dimethylamino)-9,10-dihydro-9,10-[1′,2′]benzenoanthracene-1,4,5,8-tetraone] |  |  |  |  |  |  |  |  |  | 
2 | 5.10 | 5.49 | 5.70 | 5.74 | COC1=CC(=O)C2=C(C1=O)C1C3=C(C(=O)C=CC3=O)C2c2ccccc21 (stereo not drawn) [TT2, 2-Methoxy-9,10-dihydro-9,10-[1′,2′]benzenoanthracene-1,4,5,8-tetraone] | 58-67% | 61% and 63% | 4 to 10 µM | about 6 times | 1.0-1.2 | 9 times |  |  |  | 
3 |  |  |  |  | COc1cccc2c1C(=O)c1c(O)c3c(c(O)c1C2=O)C[C@@](O)(C(C)=O)C[C@@H]3O[C@H]1C[C@H](N)[C@H](O)[C@H](C)O1 [DAU, daunomycin, reference compound] |  |  |  |  |  |  | 45% | 33-41% | unable | 6.68
